Test results from patent US5399577A, “Isoxazole derivatives and salts thereof” (Taiho Pharmaceutical Co., Ltd., priority 1991, dated 1995).

Each compound was assayed against cyclooxygenase (assay: Cyclooxygenase inhibiting effect). Conditions: seminal vasicular gland microsomes, 14C-arachidonic acid, prostaglandin E2 formation.
Assay type: biochemical
Method: (1) Cyclooxygenase inhibiting effect
This assay was carried out by the method described in Russell J. Taylor et al., Biochem. Pharmacol., 25, 2479-2484 (1976).
^14 C-arachidonic acid was reacted with seminal vasicular gland microsomes and the test drugs at various concentrations over a predetermined period of time and the obtained prostaglandin E2 was separated by thin layer chromatography. The radioactivity of prostaglandin E2 was determined by liquid scintillation counter. The IC50 values were calculated by the comparison with the radioactivity of the control.

Row | Compound | IC50
1 | COc1ccc(-c2noc(CCOC(=O)/C=C/c3ccc(O)c(O)c3)c2-c2ccc(OC)cc2)cc1 [Compound 4] | 66 nM
2 | COc1ccc(-c2noc(CCNC(=O)/C=C/c3ccc(O)c(O)c3)c2-c2ccc(OC)cc2)cc1 [Compound 5] | 100 nM
3 | O=C(/C=C/c1ccc(O)c(O)c1)NCCc1onc(-c2ccccc2)c1-c1ccccc1 [Compound 6] | 2600 nM
4 | Cc1ccc(-c2noc(CCNC(=O)/C=C/c3ccc(O)c(O)c3)c2-c2ccc(C)cc2)cc1 [Compound 7] | 2600 nM
5 | COc1ccc(-c2c(-c3ccc(Cl)cc3)noc2CCNC(=O)/C=C/c2ccc(O)c(O)c2)cc1 [Compound 8] | 1500 nM
6 | COc1ccc(-c2noc(CCNC(=O)/C=C/c3cc(OC)c(O)c(OC)c3)c2-c2ccc(OC)cc2)cc1 [Compound 10] | 100 nM
7 | COc1ccc(-c2noc(CCNC(=O)/C=C/C=C/c3ccc(O)c(OC)c3)c2-c2ccc(OC)cc2)cc1 [Compound 12] | 15 nM
8 | COc1ccc(-c2noc(CCNC(=O)/C=C/C=C/c3cc(OC)c(O)c(OC)c3)c2-c2ccc(OC)cc2)cc1 [Compound 13] | 10 nM
9 | COc1ccc(-c2noc(CCNC(=O)/C=C/C=C/c3c(OC)cc(O)cc3OC)c2-c2ccc(OC)cc2)cc1 [Compound 14] | < 10 nM
10 | COc1ccc(-c2noc(CNC(=O)/C=C/C=C/c3ccc(O)c(OC)c3)c2-c2ccc(OC)cc2)cc1 [Compound 15] | 50 nM
11 | COc1ccc(-c2noc(CNC(=O)/C=C/C=C/c3cc(OC)c(O)c(OC)c3)c2-c2ccc(OC)cc2)cc1 [Compound 16] | 290 nM
12 | COc1ccc(-c2noc(CCCC(=O)/C=C/c3ccc(O)c(O)c3)c2-c2ccc(OC)cc2)cc1 [Compound 38] | 140 nM
13 | COc1ccc(-c2noc(CCCC(=O)/C=C/c3cc(OC)c(O)c(OC)c3)c2-c2ccc(OC)cc2)cc1 [Compound 39] | 1310 nM
14 | COc1ccc(-c2noc(CCCC(=O)/C=C/c3cc(C)c(O)c(C)c3)c2-c2ccc(OC)cc2)cc1 [Compound 40] | 240 nM
15 | COc1ccc(-c2noc(C(=O)/C=C/C=C/c3ccc(O)c(OC)c3)c2-c2ccc(OC)cc2)cc1 [Compound 46] | 280 nM
16 | COc1ccc(-c2noc(CCNC(=S)/C=C/c3ccc(O)c(OC)c3)c2-c2ccc(OC)cc2)cc1 [Compound 48] | 30 nM

These compounds were tested against T1, 5-Lipoxygenase (Cavia porcellus, UniProt A0A286X958) (assay: 5-Lipoxygenase inhibiting activity). Conditions: cytosol fraction of guinea pig polymorphonuclear leucocytes, 14C-arachidonic acid, 5-hydroxyeicosatetraenoic acid formation.
T1 construct: the polymorphonuclear leucocytes were collected and the cytosol fraction was obtained as an enzyme source; endogenous in cells; host or cells: guinea pig peritoneal polymorphonuclear leucocytes, cytosol fraction
T1 sequence (A0A286X958 1-674): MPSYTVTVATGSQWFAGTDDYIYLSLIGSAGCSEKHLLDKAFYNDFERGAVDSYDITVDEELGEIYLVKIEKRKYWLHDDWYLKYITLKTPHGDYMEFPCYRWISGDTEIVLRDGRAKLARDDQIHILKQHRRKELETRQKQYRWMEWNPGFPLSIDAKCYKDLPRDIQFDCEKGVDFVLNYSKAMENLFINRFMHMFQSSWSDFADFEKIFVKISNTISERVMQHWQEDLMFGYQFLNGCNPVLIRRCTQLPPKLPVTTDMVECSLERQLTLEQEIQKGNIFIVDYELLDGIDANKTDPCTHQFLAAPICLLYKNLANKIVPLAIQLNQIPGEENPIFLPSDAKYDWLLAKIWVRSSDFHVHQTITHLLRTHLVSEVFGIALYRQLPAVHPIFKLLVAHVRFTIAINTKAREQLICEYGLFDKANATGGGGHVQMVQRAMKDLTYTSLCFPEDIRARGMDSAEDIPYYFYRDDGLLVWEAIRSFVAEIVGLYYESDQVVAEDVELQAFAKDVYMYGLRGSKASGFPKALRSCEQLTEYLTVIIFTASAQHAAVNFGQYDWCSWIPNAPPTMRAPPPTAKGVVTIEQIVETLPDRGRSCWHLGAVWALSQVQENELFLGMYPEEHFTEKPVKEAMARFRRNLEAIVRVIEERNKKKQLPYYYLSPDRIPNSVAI
Assay type: biochemical
Method: (2) 5-Lipoxygenase inhibiting activity
This assay was carried out by the method described in Kenkichi Ochi et al., J. Biol. Chem., 258, 5754-5758 (1983).
Casein was injected into the abdominal cavity of a guinea pig, and the polymorphonuclear leucocytes were collected and the cytosol fraction was obtained as an enzyme source. ^14 C-arachidonic acid was reacted with the enzyme and the test drug at various concentrations over a predetermined period of time. The obtained 5-hydroxyeicosatetraenoic acid was separated by thin layer chromatography and the radioactivity was determined. The IC^50 values were calculated by the comparison with the radioactivity of the control.

Row | Compound | IC50
17 | COc1ccc(-c2noc(CCOC(=O)/C=C/c3ccc(O)c(O)c3)c2-c2ccc(OC)cc2)cc1 [Compound 4] | 62 nM
18 | COc1ccc(-c2noc(CCNC(=O)/C=C/c3ccc(O)c(O)c3)c2-c2ccc(OC)cc2)cc1 [Compound 5] | 113 nM
19 | O=C(/C=C/c1ccc(O)c(O)c1)NCCc1onc(-c2ccccc2)c1-c1ccccc1 [Compound 6] | 100 nM
20 | Cc1ccc(-c2noc(CCNC(=O)/C=C/c3ccc(O)c(O)c3)c2-c2ccc(C)cc2)cc1 [Compound 7] | 110 nM
21 | COc1ccc(-c2c(-c3ccc(Cl)cc3)noc2CCNC(=O)/C=C/c2ccc(O)c(O)c2)cc1 [Compound 8] | 86 nM
22 | COc1ccc(-c2noc(CCNC(=O)/C=C/c3cc(OC)c(O)c(OC)c3)c2-c2ccc(OC)cc2)cc1 [Compound 10] | 670 nM
23 | COc1ccc(-c2noc(CCNC(=O)/C=C/C=C/c3ccc(O)c(OC)c3)c2-c2ccc(OC)cc2)cc1 [Compound 12] | 240 nM
24 | COc1ccc(-c2noc(CCNC(=O)/C=C/C=C/c3cc(OC)c(O)c(OC)c3)c2-c2ccc(OC)cc2)cc1 [Compound 13] | 50 nM
25 | COc1ccc(-c2noc(CCNC(=O)/C=C/C=C/c3c(OC)cc(O)cc3OC)c2-c2ccc(OC)cc2)cc1 [Compound 14] | 130 nM
26 | COc1ccc(-c2noc(CNC(=O)/C=C/C=C/c3ccc(O)c(OC)c3)c2-c2ccc(OC)cc2)cc1 [Compound 15] | 110 nM
27 | COc1ccc(-c2noc(CNC(=O)/C=C/C=C/c3cc(OC)c(O)c(OC)c3)c2-c2ccc(OC)cc2)cc1 [Compound 16] | 230 nM
28 | COc1ccc(-c2noc(CCCC(=O)/C=C/c3ccc(O)c(O)c3)c2-c2ccc(OC)cc2)cc1 [Compound 38] | 55 nM
29 | COc1ccc(-c2noc(CCCC(=O)/C=C/c3cc(OC)c(O)c(OC)c3)c2-c2ccc(OC)cc2)cc1 [Compound 39] | 180 nM
30 | COc1ccc(-c2noc(CCCC(=O)/C=C/c3cc(C)c(O)c(C)c3)c2-c2ccc(OC)cc2)cc1 [Compound 40] | 3030 nM
31 | COc1ccc(-c2noc(C(=O)/C=C/C=C/c3ccc(O)c(OC)c3)c2-c2ccc(OC)cc2)cc1 [Compound 46] | 390 nM
32 | COc1ccc(-c2noc(CCNC(=S)/C=C/c3ccc(O)c(OC)c3)c2-c2ccc(OC)cc2)cc1 [Compound 48] | 630 nM
